Source: US12077503B2, “Substituted cyclic amides and their use as herbicides” (FMC CORPORATION, priority 2015, dated 2024)

What was measured:
Type in all cases: in vivo
[1] = test system: ragweed (common ragweed, Ambrosia elatior); assay: Test A preemergence; settings: for Plant response rating, Ragweed: 125 g ai/ha; for Ragweed plant response rating (0 to 100 scale): 0 is no effect, 100 is complete control
Text: (§1) Seeds of plant species selected from barnyardgrass (Echinochloa crus-galli), Kochia (Kochia scoparia), ragweed (common ragweed, Ambrosia elatior), ryegrass, Italian (Italian ryegrass, Lolium multiflorum), crabgrass, large (Digitaria sanguinalis), giant foxtail (Setaria faberii), green foxtail (Setaria viridis), morningglory (Ipomoea spp.), pigweed (Amaranthus retroflexus), velvetleaf (Abutilon theophrasti), wheat (Triticum aestivum), and corn (Zea mays) were planted into a blend of loam soil and sand and treated preemergence with a directed soil spray using test chemicals formulated in anon-phytotoxic solvent mixture which included a surfactant.
(§2) At the same time, plants selected from these crop and weed species and also blackgrass (Alopecurus myosuroides), and Galium (catchweed bedstraw, Galium aparine) were planted in pots containing the same blend of loam soil and sand and treated with postemergence applications of test chemicals formulated in the same manner. Plants ranged in height from 2 to 10 cm and were in the one- to two-leaf stage for the postemergence treatment. Treated plants and untreated controls were maintained in a greenhouse for approximately 10 d, after which time all treated plants were compared to untreated controls and visually evaluated for injury. Plant response ratings, summarized in Table A, are based on a 0 to 100 scale where 0 is no effect and 100 is complete control. A dash (-) response means no test result.

[2] = test system: barnyardgrass (Echinochloa crus-galli); assay: Test A preemergence; settings: for Plant response rating, Barnyardgrass: 125 g ai/ha; for Barnyardgrass plant response rating (0 to 100 scale): 0 is no effect, 100 is complete control
Text: as §1, §2

[3] = test system: giant foxtail (Setaria faberii); assay: Test A preemergence; settings: for Plant response rating, Foxtail, Giant: 125 g ai/ha; for Foxtail, Giant plant response rating (0 to 100 scale): 0 is no effect, 100 is complete control
Text: as §1, §2

Kochia (Kochia scoparia) [4] = assay: Test A preemergence; settings: for Plant response rating, Kochia: 125 g ai/ha; for Kochia plant response rating (0 to 100 scale): 0 is no effect, 100 is complete control
Text: as §1, §2

[5] = test system: pigweed (Amaranthus retroflexus); assay: Test A preemergence; settings: for Plant response rating, Pigweed: 125 g ai/ha; for Pigweed plant response rating (0 to 100 scale): 0 is no effect, 100 is complete control
Text: as §1, §2

[6] = test system: ryegrass, Italian (Italian ryegrass, Lolium multiflorum); assay: Test A preemergence; settings: for Plant response rating, Ryegrass, Italian: 125 g ai/ha; for Ryegrass, Italian plant response rating (0 to 100 scale): 0 is no effect, 100 is complete control
Text: as §1, §2

[7] = test system: blackgrass (Alopecurus myosuroides); assay: Test A postemergence
Text: as §1, §2

[8] = test system: ragweed (common ragweed, Ambrosia elatior); assay: Test A postemergence
Text: as §1, §2

[9] = test system: wheat (Triticum aestivum); assay: Test A postemergence
Text: as §1, §2

[10] = test system: Galium (catchweed bedstraw, Galium aparine); assay: Test A postemergence
Text: as §1, §2

[11] = test system: barnyardgrass (Echinochloa crus-galli); assay: Test A postemergence
Text: as §1, §2

[12] = test system: giant foxtail (Setaria faberii); assay: Test A postemergence
Text: as §1, §2

Kochia (Kochia scoparia) [13] = assay: Test A postemergence
Text: as §1, §2

[14] = test system: pigweed (Amaranthus retroflexus); assay: Test A postemergence
Text: as §1, §2

corn (Zea mays) = assay: Test A postemergence
Text: as §1, §2

[15] = test system: ryegrass, Italian (Italian ryegrass, Lolium multiflorum); assay: Test A postemergence
Text: as §1, §2

[16] = Preemergence, visual injury after approximately 10 d, 0 to 100 scale where 0 is no effect and 100 is complete control
[17] = Preemergence, 500 g ai/ha, visual injury approx. 10 d
[18] = 125 g ai/ha, postemergence, visual rating after approx. 10 d, 0 to 100 scale (0 no effect, 100 complete control)
[19] = Postemergence, 500 g ai/ha, 0 to 100 scale where 0 is no effect and 100 is complete control
[20] = preemergence, 0 to 100 scale (0 no effect, 100 complete control)
[21] = 500 g ai/ha, postemergence, 0 to 100 scale, 0 no effect, 100 complete control
[22] = Postemergence, 125 g ai/ha, visual injury, 0 to 100 scale (0 no effect, 100 complete control), approx. 10 d
[23] = 125 g ai/ha, postemergence, visual injury rating on 0 to 100 scale (0 no effect, 100 complete control), approx. 10 d
[24] = 1000 g ai/ha, postemergence, 0 to 100 scale, 0 no effect, 100 complete control

CN1CC(c2cccc(C(F)(F)F)c2)C(C(=O)Nc2ccccc2)C1=O (centres unmarked) [Compound 577]
Plant response rating, Ragweed [1, 16]: 0
Ragweed plant response rating (0 to 100 scale, 0 is no effect, 100 is complete control) [1, 17]: 40
Plant response rating, Barnyardgrass [2, 16]: 90
Barnyardgrass plant response rating (0 to 100 scale, 0 is no effect, 100 is complete control) [2, 17]: 100
Plant response rating, Foxtail, Giant [3, 16]: 90
Foxtail, Giant plant response rating (0 to 100 scale, 0 is no effect, 100 is complete control) [3, 17]: 100
Plant response rating, Kochia (Kochia (Kochia scoparia) [4]; [16]): 50
Kochia plant response rating (0 to 100 scale, 0 is no effect, 100 is complete control) (Kochia (Kochia scoparia) [4]; [17]): 70
Plant response rating, Pigweed [5, 16]: 0
Pigweed plant response rating (0 to 100 scale, 0 is no effect, 100 is complete control) [5, 17]: 40
Plant response rating, Ryegrass, Italian [6, 16]: 40
Ryegrass, Italian plant response rating (0 to 100 scale, 0 is no effect, 100 is complete control) [6, 17]: 80
Plant response rating, Blackgrass [7, 18]: 70
Plant response rating, Blackgrass [7, 19]: 80
Plant response rating, Ragweed [8, 18]: 0
Plant response rating, Ragweed [8, 19]: 30
Plant response rating, Wheat [9, 18]: 40
Plant response rating, Wheat [9, 19]: 70
Plant response rating, Galium [10, 18]: 30
Plant response rating, Galium [10, 19]: 50
Plant response rating, Barnyardgrass [11, 18]: 90
Plant response rating, Barnyardgrass [11, 19]: 100
Plant response rating, Foxtail, Giant [12, 18]: 90
Plant response rating, Foxtail, Giant [12, 19]: 90
Plant response rating, Kochia (Kochia (Kochia scoparia) [13]; [18]): 0
Plant response rating, Kochia (Kochia (Kochia scoparia) [13]; [19]): 40
Plant response rating, Pigweed [14, 18]: 0
Plant response rating, Pigweed [14, 19]: 0
Plant response rating, Corn (corn (Zea mays); [18]): 60
Plant response rating, Corn (corn (Zea mays); [19]): 80
Plant response rating, Ryegrass, Italian [15, 18]: 30
Plant response rating, Ryegrass, Italian [15, 19]: 30

O=C1NCC(c2cccc(O)c2)C1C(=O)Nc1cccc(F)c1F (racemic) [Compound 384]
Plant response rating, Ragweed [1, 20]: 0
Ragweed plant response rating (0 to 100 scale) ([1]; Preemergence, 500 g ai/ha): 0
Plant response rating, Barnyardgrass [2, 20]: 0
Barnyardgrass plant response rating (0 to 100 scale) ([2]; Preemergence, 500 g ai/ha): 0
Plant response rating, Foxtail, Giant [3, 20]: 0
Foxtail, Giant plant response rating (0 to 100 scale) ([3]; Preemergence, 500 g ai/ha): 0
Plant response rating, Kochia (Kochia (Kochia scoparia) [4]; [20]): 0
Kochia plant response rating (0 to 100 scale) (Kochia (Kochia scoparia) [4]; Preemergence, 500 g ai/ha): 0
Plant response rating, Pigweed [5, 20]: 0
Pigweed plant response rating (0 to 100 scale) ([5]; Preemergence, 500 g ai/ha): 0
Plant response rating, Ryegrass, Italian [6, 20]: 0
Ryegrass, Italian plant response rating (0 to 100 scale) ([6]; Preemergence, 500 g ai/ha): 0
Plant response rating, Blackgrass [7, 21]: 0
Plant response rating, Blackgrass [7, 22]: 0
Ragweed plant response rating [8, 23]: 0
Plant response rating, Ragweed [8, 21]: 0
Wheat plant response rating [9, 23]: 0
Plant response rating, Wheat [9, 21]: 0
Galium plant response rating [10, 23]: 0
Plant response rating, Galium [10, 21]: 0
Plant response rating, Barnyardgrass [11, 21]: 0
Plant response rating, Barnyardgrass [11, 22]: 0
Foxtail, Giant plant response rating [12, 23]: 0
Plant response rating, Foxtail, Giant [12, 21]: 0
Kochia plant response rating (Kochia (Kochia scoparia) [13]; [23]): 0
Plant response rating, Kochia (Kochia (Kochia scoparia) [13]; [21]): 0
Pigweed plant response rating [14, 23]: 0
Plant response rating, Pigweed [14, 21]: 0
Corn plant response rating (corn (Zea mays); [23]): 0
Plant response rating, Corn (corn (Zea mays); [21]): 0
Ryegrass, Italian plant response rating [15, 23]: 0
Plant response rating, Ryegrass, Italian [15, 21]: 0

O=C(Nc1cccc(F)c1F)C1C(=O)N(CC=Cc2ccccc2)CC1c1cc(F)cc(F)c1 (centres unmarked) [Compound 511]
Ragweed plant response rating (0 to 100 scale) ([1]; Preemergence, 1000 g ai/ha): 0
Barnyardgrass plant response rating (0 to 100 scale) ([2]; Preemergence, 1000 g ai/ha): 90
Foxtail, Giant plant response rating (0 to 100 scale) ([3]; Preemergence, 1000 g ai/ha): 90
Kochia plant response rating (0 to 100 scale) (Kochia (Kochia scoparia) [4]; Preemergence, 1000 g ai/ha): 0
Pigweed plant response rating (0 to 100 scale) ([5]; Preemergence, 1000 g ai/ha): 0
Ryegrass, Italian plant response rating (0 to 100 scale) ([6]; Preemergence, 1000 g ai/ha): 0
Plant response rating, Blackgrass [7, 24]: 20
Plant response rating, Ragweed [8, 24]: 0
Plant response rating, Wheat [9, 24]: 0
Plant response rating, Galium [10, 24]: 0
Plant response rating, Barnyardgrass [11, 24]: 90
Plant response rating, Foxtail, Giant [12, 24]: 90
Plant response rating, Kochia (Kochia (Kochia scoparia) [13]; [24]): 0
Plant response rating, Pigweed [14, 24]: 0
Plant response rating, Corn (corn (Zea mays); [24]): 0
Plant response rating, Ryegrass, Italian [15, 24]: 0
